Measurements: US5789604A, “Isolation, characterization and structures of new antibiotic components produced by fungal culture 07F275” (priority 1993, dated 1998)

Key:
[1] = test system: Venturia inaequalis; assay: in vivo evaluation as fungicidal agents, apple scab
Procedure: (§1) in Vivo Evaluation as Fungicidal Agents (Table 2)
(§2) Compounds are dissolved in acetone, diluted to the desired concentration with water and surfactant and sprayed onto the test plants. After drying, the test plants are treated with fungal inoculum. When disease symptom development is optimal, plants are rated for disease control. Inoculated untreated plants, solvent/surfactant treated plants and plants treated with a reference standard are used for comparison.
AS Apple scab Venturia inaequalis
(§3) Compounds are rated for control of each disease according to the rating scale shown below: […]

[2] = test system: Plasmopara viticola; assay: in vivo evaluation as fungicidal agents, grape downy mildew; conditions: for disease control rating GDM: grape downy mildew
Procedure: as §1, §2, §3

[3] = test system: Botrytis cinerea; assay: in vivo evaluation as fungicidal agents, pepper botrytis
Procedure: as §1, §2
PB Pepper botrytis Botrytis cinerea
as §3

[4] = test system: Pyricularia oryzae; conditions: in vivo
[5] = test system: Cercospora beticola; assay: in vivo evaluation as fungicidal agents, sugar beet cercospora
Procedure: as §1, §2
SBC Sugar beet cercospora
as §3

[6] = test system: Alternaria solani; assay: in vivo evaluation as fungicidal agents, tomato early blight
Procedure: as §1, §2, §3

[7] = test system: Erysiphe graminis f.sp. tritici; assay: in vivo evaluation as fungicidal agents, wheat powdery mildew
Procedure: as §1, §2
WPM Wheat powdery mildew
as §3

[8] = test system: Leptosphaeria nodurum; assay: in vivo evaluation as fungicidal agents, wheat septoria nodorum
[9] = test system: Fusarium oxysporum Schlechtend: Fr.f.sp. cucumerinim; assay: in vitro inhibition of mycelial growth, FUSOXC; format: cell-based
Procedure: (§4) in Vitro Evaluation of the Inhibition of the Mycelial Growth by Target (Table 3)
(§5) Severe soilborne diseases such as damping off, seedling blight, crown rot, and root rot, among others are caused by certain plant pathogenic fungi. An in Vitro assay is conducted to determine whether test compounds will inhibit the mycelial growth of said fungi. Pathogens, the method of testing, and the rating system used are reported below.
(§6) General Procedure for the in Vitro Fungicide Screen Assay fungi included the following plant pathogens: FUSOXC Fusarium oxysporum Schlechtend: Fr.f.sp. cucumerinim J. H. Owen
(§7) The test compound (2.5-10 mg) is dissolved in 0.5 ml acetone, diluted with 4.5 ml sterile deionized water, and mixed with 95 ml of an autoclaved and partially cooled, chemically defined agar medium in a 250 ml flask. Test compounds that are insoluble are prepared as a fine suspension ultrasonically or with a glass tissue grinder, before addition to the medium. The chemically defined medium (CDM) used in these experiments is as follows:
(§8) CDM is sterilized by autoclaving or by filtration through a […]
(§9) The mixture of test compound and agar medium as described above is poured into several 100 mm×15 mm sterile plastic plates and allowed to solidify. The surface of each plate is inoculated with a single disc of mycelium and agar cut with an 8 mm diameter cork borer from actively growing cultures of assay fungi on a chemically defined agar medium. The plates are incubated at room temperature. Growth inhibition is determined when the mycelial growth on unamended control media has reached the edge of the petri plates. The time interval varies depending on the growth rate of the fungus. Each colony diameter is measured and compared with the untreated control and the percent inhibition is calculated as follows: [formula]
(§10) Each test includes a solvent blank consisting of the formulation without a test compound in addition to the untreated control.

[10] = test system: Psudocercosporella herpotrichoides; assay: in vitro inhibition of mycelial growth, PSDCHE; format: cell-based
Procedure: as §4, §5, §6
(§11) PSDCHE Psudocercosporella herpotrichoides Deighton
as §7, §8, §9, §10

[11] = test system: Pythium ultimam; assay: in vitro inhibition of mycelial growth, PYTHUL; format: cell-based; conditions: for activity against Pythium: in vitro
Procedure: as §4, §5, §6
PYTHUL Pythium ultimam Trow
as §7, §8, §9, §10

[12] = test system: Rhizoctonia solani Kuehn AG1 1A; assay: in vitro inhibition of mycelial growth, RHIZSO; format: cell-based
Procedure: as §4, §5, §6
(§12) RHIZSO Rhizoctonia solani Kuehn AG1 1A
as §7, §8, §9, §10

[13] = test system: other fungi; assay: in vitro inhibition of mycelial growth, other fungi; format: cell-based
Procedure: as §4, §5, §6, §11, §12
The test compound (2.5-10 mg) is dissolved in 0.5 ml acetone, diluted with 4.5 ml sterile deionized water, and mixed with 95 ml of an autoclaved and partially cooled, chemically defined agar medium in a 250 ml flask. […]
The mixture of test compound and agar medium as described above is poured into several 100 mm×15 mm sterile plastic plates and allowed to solidify. […] Growth inhibition is determined when the mycelial growth on unamended control media has reached the edge of the petri plates. […] Each colony diameter is measured and compared with the untreated control and the percent inhibition is calculated as follows: [formula]

O=C1[C@@H]2O[C@@H]2C2(Oc3cccc4cccc(c34)O2)[C@]23O[C@]12[C@H](O)C=CC3=O [07F275sigma]
disease control rating AS ([1]; 12.5 ppm): 0 (0) | disease control rating AS ([1]; 50.0 ppm): 0 (0) | disease control rating AS ([1]; 200.0 ppm): 0 (0) | disease control rating GDM ([2]; 12.5 ppm): 0 (0) | disease control rating GDM ([2]; 50.0 ppm): 4 (45-59) | disease control rating GDM ([2]; 200.0 ppm): 6 (75-89) | reduction of disease severity, GDM ([2]; greenhouse test, 200 ppm): about 85% | disease control, GDM ([2]; greenhouse test, dosages lower than 200 ppm): Little to no control | disease control rating PB ([3]; 12.5 ppm): 0 (0) | disease control rating PB ([3]; 50.0 ppm): 0 (0) | disease control rating PB ([3]; 200.0 ppm): 0 (0) | disease control, RB [4]: Little to no control | reduction of disease severity, RB [4]: about 85% | disease control rating SBC ([5]; 12.5 ppm): 0 (0) | disease control rating SBC ([5]; 50.0 ppm): 0 (0) | disease control rating SBC ([5]; 200.0 ppm): 0 (0) | disease control rating TEB ([6]; 12.5 ppm): 0 (0) | disease control rating TEB ([6]; 50.0 ppm): 0 (0) | disease control rating TEB ([6]; 200.0 ppm): 0 (0) | disease control rating WPM ([7]; 12.5 ppm): 0 (0) | disease control rating WPM ([7]; 50.0 ppm): 0 (0) | disease control rating WPM ([7]; 200.0 ppm): 0 (0) | disease control rating WSN ([8]; 12.5 ppm): 0 (0) | disease control rating WSN ([8]; 50.0 ppm): 0 (0) | disease control rating WSN ([8]; 200.0 ppm): 0 (0) | mycelial inhibition FUSOXC ([9]; 1.0 ppm): 0 | mycelial inhibition FUSOXC ([9]; 10.0 ppm): 0 | mycelial inhibition FUSOXC ([9]; 25.0 ppm): 0 | mycelial inhibition PSDCHE ([10]; 1.0 ppm): 1 | mycelial inhibition PSDCHE ([10]; 10.0 ppm): 1 | mycelial inhibition PSDCHE ([10]; 25.0 ppm): 1 | mycelial inhibition PYTHUL ([11]; 1.0 ppm): 3 | mycelial inhibition PYTHUL ([11]; 10.0 ppm): 7 | activity against Pythium ([11]; 10 ppm): active | mycelial inhibition PYTHUL ([11]; 25.0 ppm): 7 | activity against Pythium ([11]; dosages lower than 10 ppm): not at lower dosages | mycelial inhibition RHIZSO ([12]; 1.0 ppm): 1 | mycelial inhibition RHIZSO ([12]; 10.0 ppm): 1 | mycelial inhibition RHIZSO ([12]; 25.0 ppm): 1 | activity against other fungi in vitro [13]: Little or no activity
